The values that follow come from patent EP0461043A2, “Enantiomer separation by transesterification” (SEPRACOR, INC., priority 1990, dated 1991).

Where a name gives a salt, the structure may show the parent alone.

One series is described as follows: Water solubility. In kind it is physicochemical. The note with it: for water solubility: charged water-soluble reactant esters (salts), values given in M; for solubility in water: esters, values given in mM.
For series [1] the following is noted: L form relative to D form; cited from earlier work.

As to `COc1ccc2cc(C(C)C(=O)OCC[N+](C)(C)C)ccc2c1` (racemic) [choline ester of 2-(6-methoxy-2-naphthyl) propanoic acid], in “Water solubility”, the water solubility came out at 1610 mM. For `CC(C)Cc1ccc(C(C)C(=O)O)cc1` (stereo not drawn) [Ibuprofen, 2-(p-isobutylphenyl) propanoic acid, reference compound], in “Water solubility” (acid forms, room temperature, varies with pH), the “water solubility at room temperature” value was “single digit mM range”. In the case of `CC(C)NCC(O)COc1cccc2ccccc12` (stereo not drawn) [L form of the beta blocker propranolol, propranolol], the “times more potent than the D form” value in series [1] was 100 times. Turning to `COCCOC(=O)C(C)c1ccc(CC(C)C)cc1` (stereo not drawn) [methoxy-ethyl ester of Ibuprofen], the solubility in water entry in “Water solubility” is “approximately 0.18 mM”. With `CC(C)Cc1ccc(C(C)C(=O)OCC[N+](C)(C)C)cc1` (stereo not drawn) [methyl sulfate salt of N,N,N-trimethylammonium ethyl ester of Ibuprofen], the water solubility in “Water solubility” came out at 2180 mM.

For `CCCCCCCCOC(=O)C(C)Cl` (stereo not drawn) [octyl ester of 2-chloropropanoic acid], the solubility in water entry in “Water solubility” was “about 1.2 mM”.
